Results published in US20260356819A1, “OXOISOINDOLINYL-SUBSTITUTED […] DERIVATIVE AND USE THEREOF” (GLUETACS THERAPEUTICS (SHANGHAI) CO., LTD., priority 2023, published 2026).

Experiments:
H292 cells = experiment: Inhibition of proliferation of human lung cancer cells H292 (CellTiter-Meiluncell Luminescent Cell Viability Assay, 96 h); format: cell-based
Description: (§1) The tumor cells used herein were cultured in a cell culture medium listed in table 2 at 37 °C in an incubator with 5% CO2. Prior to experimentation, all cell lines used were correctly identified by STR profiling, and tested negative for Mycoplasma contamination using a Mycoplasma detection kit through routine screenings.
(§2) The IC50 values of the compounds of the present disclosure (including the compounds in Table 1, and Examples 1-498) were determined using the CellTiter-Meiluncell Luminescent Cell Viability Assay Kit from Dalian Meilun Biotech Co., Ltd. The detailed procedure is as follows: Tumor cells were seeded in 96-well cell culture plates at the densities specified in Table 3. On the following day, the test compounds of the present disclosure were subjected to serial dilution. […] Subsequently, 0.5 μL of the test compound dilution was transferred into the 96-well plate containing the cells, with each well containing 100 μL of cell culture medium. […]
(§3) 0.5 μL of the aforementioned diluted compound of the present disclosure (including the compounds in Table 1, and Examples 1-498) was added to the seeded cells in 100 μL of medium, yielding a final test compound concentration of 10 nM. […] The growth inhibition curves for the compounds of the present disclosure were plotted using Prism GraphPad software, and the IC50 values were calculated therefrom.

MDA-MB-231 cells = experiment: Inhibition of proliferation of breast cancer cells MDA-MB-231 (cell viability assay, 96 h); format: cell-based, human
Description: as §1, §2, §3

H2228 cells = experiment: Inhibition of proliferation of non-small cell lung cancer cells H2228 (cell viability assay, 96 h); format: cell-based, human
Description: as §1, §2, §3

Nc1cccc2c1CN(C1CCC(=O)NC1=O)C2=O (stereo not drawn) [lenalidomide, reference compound]
Inhibition Rate at 10 nM (%) (H292 cells; H292, 10 nM): b1 (0 < b1 <1%) | Inhibition Rate at 500 nM (%) (H292 cells; H292, 500 nM): b3 (5% ≤ b3 <10%) | Inhibition Rate at 10 nM (%) (MDA-MB-231 cells; MDA-MB-231, 10 nM): f4 (15% ≤ f4 <18%) | Inhibition Rate at 500 nM (%) (MDA-MB-231 cells; MDA-MB-231, 500 nM): f3 (10% ≤ f3 < 15%) | Inhibition Rate at 10 nM (%) (H2228 cells; H2228, 10 nM): d5 (20% ≤ d5 <25%) | Inhibition Rate at 500 nM (%) (H2228 cells; H2228, 500 nM): d4 (15% ≤ d4 <20%)
